The record followed here is PubChem BioAssay (NCI).

“And” between values parts separate entries of the source, which are not always exact repeats. Identical values can stand only once.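 Cells were grown in 96-well plates and exposed to each compound for 48 hours at five concentrations; endpoints were interpolated linearly between bracketing concentrations, or set to the highest concentration if not reached. At the GI50, growth is halved. TGI: total growth inhibition.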

For the assay, the system named is KM20L2 colon. In words: NCI-60 cell line screen, 48 h.
Molecule `CCOc1ccc(N(CC(=O)N2CC(=O)Nc3cc(C)c(C)cc32)C(C)=O)cc1` showed a TGI of more than 100 µM.
In turn, `CC(=O)NC(CCCNC(=O)N(C)N=O)C(=O)NCc1ccccc1` (configuration not stated) displayed a TGI of more than 100 µM.
Turning to `O=C1CCC2(c3ccc(Cl)cc3)Nc3ccccc3N12` (configuration not stated), the TGI is more than 100 µM.
The molecule `N#C/C(c1nc2ccccc2[nH]1)=c1\s/c(=C/c2ccccc2)c(=O)n1-c1ccccc1` registered a TGI of more than 100 µM.
The same measure, in the same setting: the value for `COc1ccc(OC2(c3cc(OC)ccc3OC)OC(=O)c3ccccc32)cc1` (configuration not stated) was more than 100 µM.
Consider `N=S(c1ccccc1[N+](=O)[O-])c1ccccc1[N+](=O)[O-]`, for which the GI50 was 5.21 µM and 12.9 µM; the TGI is 11.2 µM and 27.4 µM.
With `CC(C)N(C(=O)C12C3C4C5C3C1(C(=O)O)C5C42)C(C)C` (configuration not stated), the TGI was more than 100 µM.
On the same count and under the same terms, the value for `CCOC(=O)c1c(CN2CCNCC2)nc2ccc(Cl)cc2c1-c1ccccc1` was 6.87 µM; that for `Cc1cc(N(CCC#N)CCC#N)ccc1/C=C1N=C(/C=C\c2ccccc2)N(NC(=O)CC(=O)Nc2ccccc2Cl)C\1=O` was more than 100 µM; that for `CC(=O)NC(CCCCNCc1ccccc1)C(=O)NCc1ccccc1` (configuration not stated) was more than 100 µM.
On the same count and under the same terms, the value for `CCc1cccc(C(C)C)c1NC(=O)/C(=N\NC(N)=O)C(C(=O)OC)c1cnc2ccccc2n1` (configuration not stated) was more than 100 µM; that for `Cc1cc(Cl)ccc1NC(=O)/C(=N\NC(C)(C)C)C(C#N)c1nc(-c2ccc([N+](=O)[O-])cc2)cs1` (configuration not stated) was more than 100 µM.
The molecule `COC(=O)C(Cc1nc2ccc(Cl)cc2[nH]c1=O)C(=O)C(=O)Nc1cc(C)ccc1C` (configuration not stated) had a TGI of more than 100 µM.
The same measure, in the same setting: the same measure for `COc1cc([C@@H]2c3cc4c(cc3[C@@H](NCc3ccccc3F)C3COC(=O)[C@@H]32)OCO4)cc(OC)c1O` (some centres not stated): 8.65 µM.
For `O=C(CCN1CCCCC1)Nc1ccc2c(c1)C(=O)c1ccc(NC(=O)CCN3CCCCC3)cc1C2=O`, the TGI is 33.2 µM.
Still for that read-out and setting: the value for `Cc1ccc(C(=O)NC2CCCCC2)cc1N=NN(C)C` was more than 100 µM.
Same read-out and setting: the same measure for `CCOC(=O)C(C)NC(=O)NC12CC3CC(CC(F)(C3)C1)C2` (configuration not stated): more than 100 µM; for `O=C1/C(=C/c2ccccc2Cl)COc2ccc(Br)cc21`: more than 100 µM; for `COc1cccc(C2=NC(C(C)C)CO2)c1OC` (configuration not stated): more than 100 µM.
Same read-out and setting: the same measure for `CC(=O)OCC12CC(CC1OC(C)=O)c1ccccc12` (configuration not stated): more than 100 µM.
`Cc1ccc(NC(=O)C2C3C=CC(O3)C2C(=O)O)cc1` (configuration not stated) yielded a TGI of more than 100 µM.
